According to US6225284A, “Somatostatin peptides” (Novartis AG, priority 1995, dated 2001):
Numbered stars: 1 amine (or outer) side, 2 acyl side, 3 side chain; on linkers, the order of the positions; unused ones are H or OH. Square brackets hold non-standard residues; d marks the D form. Side chains are listed from the residue outwards. Peptide text beside a SMILES is read from it. * marks the point of attachment. Ethylenediamine = C(CN[*:2])N[*:1]; cisHyp = O=C(O)[C@@H]1C[C@H](O)CN1; Hyp = O=C(O)[C@@H]1C[C@@H](O)CN1; NHCH2CH2NMe2 = CN(C)CCN*; CO = O=C([*:1])[*:2]; Bn = c1ccc(C*)cc1

Experiments:
hSST-5 = hSST-5 (Homo sapiens, UniProt P35346); experiment: competition binding assay, membranes of CHO cells expressing hSST-5, [125I-Tyr3]-octreotide; conditions: competition with [125I-Tyr3]-octreotide; read-out: IC50 (nM) hSSTR-5
Sequence of hSST-5 (P35346 whole entry): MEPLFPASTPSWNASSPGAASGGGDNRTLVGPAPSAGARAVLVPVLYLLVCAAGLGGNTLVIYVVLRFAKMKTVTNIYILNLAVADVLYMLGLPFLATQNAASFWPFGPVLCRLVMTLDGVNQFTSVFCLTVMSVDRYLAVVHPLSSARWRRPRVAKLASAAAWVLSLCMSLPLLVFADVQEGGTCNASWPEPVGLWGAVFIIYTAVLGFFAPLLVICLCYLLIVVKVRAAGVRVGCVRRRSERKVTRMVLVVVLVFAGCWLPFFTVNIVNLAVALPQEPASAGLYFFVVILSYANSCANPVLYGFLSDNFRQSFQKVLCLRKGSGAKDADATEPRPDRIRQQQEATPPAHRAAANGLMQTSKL
Experimental: (§1) The binding assays may be carried out as disclosed hereunder using membranes prepared from hSST-1, hSST-2, hSST-3, hSST-4 or hSST-5 selective cell lines, e.g. CHO cells stably expressing hSST-1, hSST-2, hSST-3, hSST-4 or hSST-5.
(§2) Brain or pituitary tissue is used in which hSST are visualized with e.g. in situ hybridization and/or receptor autoradiography. Membranes are prepared according to known methods, e.g. as disclosed by J C. Reubi et al. in J. Clin. Endocrinol. Metab. 1987, 65, 1127-1137. Membranes prepared from hSST selective cell lines, e.g. CHO cells stably expressing hSST-1 or hSST-2 or hSST-3 or hSST-4 or hSST-5 are incubated in triplicate in a total volume of 300 μl at 22° C. for 30 min with increasing concentrations of [^125 I-Tyr^3 ]-octreotide in 10 mmol/l Hepes buffer (pH 7.6) containing 0.5% BSA. The incubation is terminated by rapid filtration through Whatman GF/B glass fiber filters, which are then washed four times each with 5 ml ice cold 10 mmol/l Tris/150 mmol/l NaCl. The filters are counted in a LKB counter at 78% counting efficiency. Specific binding is total binding minus non-specific binding in the presence of 1 μmol/l somatostatin-14. The experiments are carried out in triplicate. The affinity constant (KD) and number of binding sites are calculated from Scatchard plots of the data.
(§3) The COMPOUNDS OF THE INVENTION, e.g. as indicated above, respectively, have in the above binding assays towards hsST-1, hSST-2, hSST-3, hSST-4 and/or hSST-5 an IC50 in the nMolar range, preferably an IC50 of from 0.1 to 10 nM (IC50 =concentration for half-maximal inhibition in a competition binding assay using [^125 I-Tyr^3 ]-octreotide the same radioligand as indicated above).

hSST-2 = hSST-2 (Homo sapiens, UniProt P30874); experiment: competition binding assay, membranes of CHO cells expressing hSST-2, [125I-Tyr3]-octreotide; conditions: competition with [125I-Tyr3]-octreotide; read-out: IC50 (nM) hSSTR-2
Sequence of hSST-2 (P30874 whole entry): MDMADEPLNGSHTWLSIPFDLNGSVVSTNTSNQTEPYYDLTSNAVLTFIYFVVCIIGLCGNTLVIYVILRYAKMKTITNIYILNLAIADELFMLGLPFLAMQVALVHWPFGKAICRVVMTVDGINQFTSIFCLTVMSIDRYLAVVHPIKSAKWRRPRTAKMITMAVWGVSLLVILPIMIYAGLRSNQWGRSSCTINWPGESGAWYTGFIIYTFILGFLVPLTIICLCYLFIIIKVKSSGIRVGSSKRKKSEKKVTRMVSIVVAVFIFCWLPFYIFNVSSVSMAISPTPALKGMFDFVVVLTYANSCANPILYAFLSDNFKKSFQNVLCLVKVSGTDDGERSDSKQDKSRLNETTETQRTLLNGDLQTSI
Experimental: as §1, §2, §3

hSST-1 = hSST-1 (Homo sapiens, UniProt P30872); experiment: competition binding assay, membranes of CHO cells expressing hSST-1, [125I-Tyr3]-octreotide; conditions: competition with [125I-Tyr3]-octreotide; read-out: IC50 (nM) hSSTR-1
Sequence of hSST-1 (P30872 whole entry): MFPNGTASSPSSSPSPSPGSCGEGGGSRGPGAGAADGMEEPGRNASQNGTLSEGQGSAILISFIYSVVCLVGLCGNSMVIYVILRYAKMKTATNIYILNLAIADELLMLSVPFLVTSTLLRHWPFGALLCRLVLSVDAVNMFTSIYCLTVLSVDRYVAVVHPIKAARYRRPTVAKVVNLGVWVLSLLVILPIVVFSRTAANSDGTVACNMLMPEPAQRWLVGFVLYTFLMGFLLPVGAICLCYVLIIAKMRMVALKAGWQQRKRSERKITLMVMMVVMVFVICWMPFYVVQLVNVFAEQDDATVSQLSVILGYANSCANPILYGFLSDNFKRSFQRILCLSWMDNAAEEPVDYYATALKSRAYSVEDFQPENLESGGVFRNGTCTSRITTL
Experimental: as §1, §2, §3

hSST-3 = hSST-3 (Homo sapiens, UniProt P32745); experiment: competition binding assay, membranes of CHO cells expressing hSST-3, [125I-Tyr3]-octreotide; conditions: competition with [125I-Tyr3]-octreotide; read-out: IC50 (nM) hSSTR-3
Sequence of hSST-3 (P32745 whole entry): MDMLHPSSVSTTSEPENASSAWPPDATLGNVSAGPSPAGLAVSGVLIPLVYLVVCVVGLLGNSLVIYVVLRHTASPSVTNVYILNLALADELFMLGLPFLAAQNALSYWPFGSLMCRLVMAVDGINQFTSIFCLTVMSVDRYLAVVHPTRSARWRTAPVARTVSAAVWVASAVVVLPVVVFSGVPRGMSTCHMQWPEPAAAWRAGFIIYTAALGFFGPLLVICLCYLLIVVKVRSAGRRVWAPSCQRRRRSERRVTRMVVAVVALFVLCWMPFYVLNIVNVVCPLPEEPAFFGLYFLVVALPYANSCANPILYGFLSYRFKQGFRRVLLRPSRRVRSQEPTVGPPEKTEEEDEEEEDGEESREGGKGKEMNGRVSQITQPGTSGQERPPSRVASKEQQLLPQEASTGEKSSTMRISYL
Experimental: as §1, §2, §3

hSST-4 = hSST-4 (Homo sapiens, UniProt P31391); experiment: competition binding assay, membranes of CHO cells expressing hSST-4, [125I-Tyr3]-octreotide; conditions: competition with [125I-Tyr3]-octreotide; read-out: IC50 (nM) hSSTR-4
Sequence of hSST-4 (P31391 whole entry): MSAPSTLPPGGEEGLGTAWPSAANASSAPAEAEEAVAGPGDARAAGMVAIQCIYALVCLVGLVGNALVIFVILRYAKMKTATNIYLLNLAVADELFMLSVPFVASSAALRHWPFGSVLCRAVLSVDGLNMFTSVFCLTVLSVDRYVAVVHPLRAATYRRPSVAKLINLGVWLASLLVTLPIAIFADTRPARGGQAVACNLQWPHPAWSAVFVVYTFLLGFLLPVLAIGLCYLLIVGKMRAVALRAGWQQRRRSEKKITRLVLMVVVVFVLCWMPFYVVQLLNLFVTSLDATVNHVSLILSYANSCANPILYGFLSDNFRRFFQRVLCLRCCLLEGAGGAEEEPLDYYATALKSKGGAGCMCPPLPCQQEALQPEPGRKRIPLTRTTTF

[1] = tested on: AR42J rat pancreatic tumor cell line; experiment: AR42J proliferation test; type: cell-based; conditions: exposure 2 to 5 days; ± SE; read-out: IC50, inhibition of proliferation of AR42J tumor cells
Experimental: The AR42J rat pancreatic tumor cell line is derived from an azaserine-induced exocrine pancreatic tumor (Jessop and Hay, 1980). The absence of mycoplasma is regularly checked using bisbenzimide staining and the GenProbe hybridization assay (San Diego, Calif.). Cultures are propagated in DMEM supplemented with 10% fetal calf serum (FCS) at 5% CO2. Cells are grown in the absence of antibiotics or antifungal agents. Subconfluent AR42J cells are trypsinized, diluted in DMEM +2.5% FCS and seeded in uncoated 96-well plates. After a 48-hr incubation period (Day 0), the number of cells in a separate control plate is determined both by counting cells in a Coulter counter and by the SRB calorimetric assay. The cells are then exposed to the compound to be tested for 2 to 5 days at various concentrations and then counted.

[2] = tested on: GH release from cultured pituitary cells; experiment: inhibition of GH release in vitro from cultured pituitary cells; type: cell-based; conditions: rat pituitary cells, 3×10^-10 M growth hormone releasing factor, two to four hours
Experimental: Furthermore, the COMPOUNDS OF THE INVENTION show GH-release inhibiting activity as indicated by the inhibition of GH release in vitro from cultured pituitary cells. Anterior pituitary glands from adult male rats are cut into small pieces and dispersed using 0.1% trypsin in 20 mM HEPES buffer. The dispersed cells are cultured for four days in MEM (Gibco) supplemented with 5% fetal calf serum, 5% horse serum, 1 mM NaHCO3, 2.5 nM dexamethasone, 2.5 mg/ml insulin and 20 U/ml Pen/Strep. On the day of the experiment the attached cells are washed two times with Krebs-Ringer medium buffered with 20 mM HEPES and supplemented with 5 mM glucose and 0.2% BSA. Subsequently the cells are incubated for two to four hours with the test compound in the presence of 3×10^-10 M growth hormone releasing factor. The amount of growth hormone released into the medium is measured by RIA.

SMILES | IC50 (hSST-5) [nM] | IC50 (hSST-2) [nM] | IC50 (hSST-1) [nM] | IC50 (hSST-3) [nM] | IC50 (hSST-4) [nM] | IC50 [1] [nM] | IC50 [2] [nM]
NCCCC[C@@H]1NC(=O)[C@@H](Cc2c[nH]c3ccccc23)NC(=O)[C@H](Cc2ccccc2)NC(=O)[C@@H]2C[C@@H](OC(=O)NCCN)CN2C(=O)[C@H](Cc2ccccc2)NC(=O)[C@H](Cc2ccc(OCc3ccccc3)cc2)NC1=O [Example 2, Cyclo[{4-(NH2 --C2 H4 --NH--CO--O--)Pro}-Phe-DTrp-Lys-Tyr(Bzl)-Phe]] (cyclo(F[Hyp]([CO-Ethylenediamine])F[dW]KY(Bn))) | 0.46 | 2.3 | 4.6 | 0.93 | 490 | 0.7 ± 0.3 | 0.4
NCCCC[C@@H]1NC(=O)[C@@H](Cc2c[nH]c3ccccc23)NC(=O)[C@H](Cc2ccccc2)NC(=O)[C@@H]2C[C@@H](OC(=O)NCCN)CN2C(=O)[C@H](Cc2ccccc2)NC(=O)[C@H](COCc2ccccc2)NC1=O [Example 31] (cyclo(F[Hyp]([CO-Ethylenediamine])F[dW]KS(Bn))) | 2.9 | 0.8 | 0.5 | 3.9 |  |  | 
CN(C)CCNC(=O)O[C@@H]1C[C@H]2C(=O)N[C@@H](Cc3ccccc3)C(=O)N[C@H](Cc3c[nH]c4ccccc34)C(=O)N[C@@H](CCCCN)C(=O)N[C@@H](COCc3ccccc3)C(=O)N[C@@H](Cc3ccccc3)C(=O)N2C1 [Example 36] (cyclo(F[Hyp]([CO-NHCH2CH2NMe2])F[dW]KS(Bn))) | 4.5 | 1.3 | 0.6 | 2.4 |  |  | 

Continued, in another order:

IC50 (hSST-5) [nM] | IC50 (hSST-2) [nM] | IC50 (hSST-1) [nM] | IC50 (hSST-3) [nM] | SMILES | IC50 (hSST-4) [nM] | IC50 [1] [nM] | IC50 [2] [nM]
0.35 | 0.94 | 63 | 1.9 | NCCCC[C@@H]1NC(=O)[C@@H](Cc2c[nH]c3ccccc23)NC(=O)[C@H](Cc2ccccc2)NC(=O)[C@@H]2C[C@@H](O)CN2C(=O)[C@H](Cc2ccccc2)NC(=O)[C@H](Cc2ccc(OCc3ccccc3)cc2)NC1=O [Example 1, Cyclo [HyPro-Phe-DTrp-Lys-Tyr(Bzl)-Phe]] (cyclo(F[Hyp]F[dW]KY(Bn))) | 320 |  | 
2 | 0.13 | 3.8 | 57 | NCCCC[C@@H]1NC(=O)[C@@H](Cc2c[nH]c3ccccc23)NC(=O)[C@H](Cc2ccccc2)NC(=O)[C@@H]2C[C@H](OC(=O)NCCN)CN2C(=O)[C@H](Cc2ccccc2)NC(=O)[C@H](COCc2ccccc2)NC1=O [Example 32] (cyclo(F[cisHyp]([CO-Ethylenediamine])F[dW]KS(Bn))) |  |  | 
